Consider 43 compounds from patent publication US8664257B2, “Oxygen-substituted 3-heteroaroylamino-propionic acid derivatives and their use as pharmaceuticals” (Sanofi, priority 2010, dated 2014).

pIC50: −log10 of the molar value. Bounds are passed on as bounds.

In one assay the target is T1, Recombinant human cathepsin A (Homo sapiens, UniProt P10619).
T1 construct: Recombinant human cathepsin A (residues 29-480, with a C-terminal 10-His tag); 10-His (C); purchased R&D Systems 1049-SE
T1 sequence (P10619 29-312 limits assumed): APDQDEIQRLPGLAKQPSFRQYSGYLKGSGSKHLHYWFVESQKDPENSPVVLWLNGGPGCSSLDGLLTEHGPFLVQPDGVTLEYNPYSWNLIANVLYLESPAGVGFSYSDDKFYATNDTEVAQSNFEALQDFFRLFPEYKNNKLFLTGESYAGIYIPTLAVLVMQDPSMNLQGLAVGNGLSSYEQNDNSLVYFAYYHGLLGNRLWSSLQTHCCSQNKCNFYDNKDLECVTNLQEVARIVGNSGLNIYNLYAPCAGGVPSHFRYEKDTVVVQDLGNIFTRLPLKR
T1 sequence (P10619 327-480 limits assumed): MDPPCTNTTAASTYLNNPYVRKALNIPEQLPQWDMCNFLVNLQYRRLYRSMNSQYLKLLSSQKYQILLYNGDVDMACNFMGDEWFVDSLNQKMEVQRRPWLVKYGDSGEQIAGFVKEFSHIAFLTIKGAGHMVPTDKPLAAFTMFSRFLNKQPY
Description: Cathepsin A inhibitory activity. The assay is classed as biochemical. As to conditions: pharmacological test "Cathepsin A inhibitory activity"; IC50 given as class A/B/C; read-out: Activity (2): Cathepsin A inhibitory activity, IC50 class. The essentials:
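Read-out was microfluidic separation of cleaved vs. uncleaved Bodipy FL-bradykinin (2 μM), giving turnover, % inhibition and IC50. Compound and 833 ng/ml enzyme met for 15 min RT in pH 5.5 MES/DTT before substrate (15 min RT). The 29-480 His-tagged human enzyme was first activated by cathepsin L, then E-64 (10 μM).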
In the case of `COc1cccc([C@H](CC(=O)O)NC(=O)c2cc(O)n(-c3ccccc3F)n2)c1` [Example 237], the pIC50 was 6.00 to 7.00. The same measure, in the same setting: the figure for `O=C(O)CC(NC(=O)c1cc(O)n(-c2ccccc2Cl)n1)c1ccc(-c2ccccc2)cc1` (stereo not shown) [Example 226] is 6.00 to 7.00.

For `O=C(O)CC(NC(=O)c1cc(O)n(-c2ccc(F)cc2F)n1)c1cccc(Cl)c1Cl` (stereo not shown) [Example 186], the pIC50 is 6.00 to 7.00. The same measure, in the same setting: with `Cc1cccc(C(CC(=O)O)NC(=O)c2cc(O)n(-c3cccc(Cl)c3)n2)c1C` (stereo not shown) [Example 261] the figure was 6.00 to 7.00.

As for `CCc1ccc(C(CC(=O)O)NC(=O)c2cc(O)n(-c3ccc(F)cc3F)n2)cc1` (stereo not shown) [Example 194], the pIC50 was 6.00 to 7.00. On the same count and under the same terms, with `Cc1ccccc1[C@H](CC(=O)O)NC(=O)c1cc(O)n(-c2ccncc2)n1` [Example 141] the figure was 4.52 to 6.00; with `COc1ccccc1[C@H](CC(=O)O)NC(=O)c1cc(O)n(-c2ccc(F)cc2F)n1` [Example 177], 6.00 to 7.00; with `COc1ccccc1[C@@H](NC(=O)c1cc(O)n(-c2ccccc2F)n1)[C@@H](O)C(=O)O` [Example 240], 4.52 to 6.00.

In the case of `O=C(O)C[C@H](NC(=O)c1cc(O)n(-c2ccccc2)n1)c1ccccc1Br` [Example 159], the pIC50 is 6.00 to 7.00. Same read-out and setting: the figure for `COc1cccc(-c2ccc(C(CC(=O)O)NC(=O)c3cc(O)n(-c4ccccc4F)n3)cc2)c1` (stereo not shown) [Example 156] is 6.00 to 7.00.

The same assay, now with this note: read-out: Activity (2): Cathepsin A inhibitory activity (IC50 class).
Consider `Cc1cccc([C@H](CC(=O)O)NC(=O)c2cc(OC[C@@H](O)C(C)(C)C)n(-c3ccccc3F)n2)c1` [Example 792, (S)-3-{[1-(2-Fluoro-phenyl)-5-((S)-2-hydroxy-3,3-dimethyl-butoxy)-1H-pyrazole-3-carbonyl]-amino}-3-m-tolyl-propionic acid], for which the pIC50 is > 7.00. The same measure, in the same setting: with `Cc1ccccc1[C@H](CC(=O)O)NC(=O)c1cc(OC[C@@](C)(O)C2CC2)n(-c2ccccc2F)n1` (single isomer, unassigned) [Example 764] the figure was > 7.00; with `CC(C)(C)[C@H](O)COc1cc(C(=O)N[C@@H](CC(=O)O)c2ccc(Cl)cc2Cl)nn1-c1ccccc1F` [Example 754, (S)-3-(2,4-Dichloro-phenyl)-3-{[1-(2-fluoro-phenyl)-5-((S)-2-hydroxy-3,3-dimethyl-butoxy)-1H-pyrazole-3-carbonyl]-amino}-propionic acid], > 7.00. On to `COc1cc(C(=O)N[C@@H](CC(=O)O)c2ccc(C)cc2)nn1-c1ccccc1F` [Example 675], for which the pIC50 was > 7.00. For `Cc1ccccc1[C@H](CC(=O)O)NC(=O)c1cc(OCc2ccccc2C#N)n(-c2ccccc2F)n1` [Example 635, (S)-3-{[5-(2-Cyano-benzyloxy)-1-(2-fluoro-phenyl)-1H-pyrazole-3-carbonyl]-amino}-3-o-tolyl-propionic acid], the pIC50 is > 7.00. On the same count and under the same terms, with `O=C(O)C[C@H](NC(=O)c1cc(OCC2CC2)n(-c2ccccc2F)n1)c1ccc(C(F)(F)F)cc1` [Example 694] the figure was > 7.00; with `Cc1ccccc1[C@H](CC(=O)O)NC(=O)c1cc(O)n(-c2cc(F)cc(F)c2)n1` [Example 586], 6.00 to 7.00. Still for that read-out and setting: the figure for `CCOc1cc(C(=O)N[C@@H](CC(=O)O)c2cccc(OC)c2)nn1-c1ccccc1F` [Example 711] is 6.00 to 7.00; for `CCOc1cc(C(=O)N[C@@H](CC(=O)O)c2ccc(Cl)cc2)nn1-c1ccccc1Cl` [Example 733] it is > 7.00; for `COc1ccc(C(CC(=O)O)NC(=O)c2cc(O)n(-c3ccccc3)n2)c(C(F)(F)F)c1` (stereo not shown) [Example 546, 3-[(5-Hydroxy-1-phenyl-1H-pyrazole-3-carbonyl)-amino]-3-(4-methoxy-2-trifluoromethyl-phenyl)-propionic acid] it is 6.00 to 7.00.

Still in this assay, the particulars now being: read-out: Activity (2): Cathepsin A inhibitory activity, IC50 class.
As to `O=C(O)C[C@H](NC(=O)c1cc(O)n(-c2cccc(F)c2)n1)c1ccccc1Br` [Example 302], the pIC50 was 6.00 to 7.00.

Consider `Cc1ccc(C)c(C(CC(=O)O)NC(=O)c2cc(O)n(-c3cccc(F)c3)n2)c1` (stereo not shown) [Example 321], for which the pIC50 was 6.00 to 7.00.

On to `COc1ccccc1[C@H](CC(=O)O)NC(=O)c1cc(OCC(C)(O)C(C)C)n(-c2ccccc2F)n1` (stereo partly drawn) [Example 811, (S)-3-{[1-(2-Fluoro-phenyl)-5-(2-hydroxy-2,3-dimethyl-butoxy)-1H-pyrazole-3-carbonyl]-amino}-3-(2-methoxy-phenyl)-propionic acid], for which the pIC50 was > 7.00. Consider `O=C(O)CC(NC(=O)c1cc(O)n(-c2ccccc2)n1)c1cccc(Cl)c1` (stereo not shown) [Example 10], for which the pIC50 is 6.00 to 7.00. Turning to `CC(C)C(CC(=O)O)NC(=O)c1cc(O)n(-c2ccccc2)n1` (stereo not shown) [Example 13], the pIC50 is 4.52 to 6.00.

Regarding `CC(C)C[C@@H](CC(=O)O)NC(=O)c1cc(OC[C@@](C)(O)C(C)C)n(-c2ccccc2F)n1` [Example 841, (S)-3-{[1-(2-Fluoro-phenyl)-5-((S)-2-hydroxy-2,3-dimethyl-butoxy)-1H-pyrazole-3-carbonyl]-amino}-5-methyl-hexanoic acid], the negative-log IC50 (pIC50) was 4.52 to 6.00. The same measure, in the same setting: the figure for `COc1ccc([C@H](CC(=O)O)NC(=O)c2cc(O)n(-c3ccccc3Cl)n2)cc1` [Example 392] is 6.00 to 7.00.

As for `O=C(O)C[C@H](NC(=O)c1cc(O)n(-c2ccccc2F)n1)c1c(F)cccc1F` [Example 125], the pIC50 is 6.00 to 7.00. Still for that read-out and setting: with `Cc1ccc(C)c(-n2nc(C(=O)NC(CC(=O)O)C3CCCC3)cc2O)c1` (stereo not shown) [Example 44] the figure was 4.52 to 6.00. In the case of `COc1cccc([C@H](CC(=O)O)NC(=O)c2cc(O)n(-c3ccc(F)cc3)n2)c1OC` [Example 353], the pIC50 was 6.00 to 7.00. Still for that read-out and setting: with `CC(C)C(C)(O)COc1cc(C(=O)N[C@@H](CC(=O)O)c2c(F)cccc2F)nn1-c1ccccc1F` (stereo partly drawn) [Example 808, (S)-3-(2,6-Difluoro-phenyl)-3-{[1-(2-fluoro-phenyl)-5-(2-hydroxy-2,3-dimethyl-butoxy)-1H-pyrazole-3-carbonyl]-amino}-propionic acid] the figure was > 7.00; with `Cc1ccc(C(CC(=O)O)NC(=O)c2cc(O)n(-c3ccccc3)n2)cc1` (stereo not shown) [Example 64], 6.00 to 7.00; with `COc1cc(C(=O)N[C@@H](CC(=O)O)c2ccccc2C)nn1-c1ccccc1F` [Example 129, (S)-3-{[1-(2-Fluoro-phenyl)-5-methoxy-1H-pyrazole-3-carbonyl]-amino}-3-o-tolyl-propionic acid], > 7.00.

Staying with this assay, now noted: recombinant human cathepsin A 833 ng/ml, Bodipy FL-labeled bradykinin 2 μM, pH 5.5; read-out: CATH-A IC50.
For the compound `COc1ccc(F)cc1C(CC(=O)O)NC(=O)c1cc(O)n(-c2ccc(F)cc2)n1` (stereo not shown) [Example 525, 3-(5-Fluoro-2-methoxy-phenyl)-3-{[1-(4-fluoro-phenyl)-5-hydroxy-1H-pyrazole-3-carbonyl]-amino}-propionic acid], the negative-log IC50 (pIC50) was 5.82. Still for that read-out and setting: the figure for `O=C(O)C[C@H](NC(=O)c1cc(O)n(-c2cccc(Cl)c2)n1)c1ccccc1Cl` [Example 514, (S)-3-(2-Chloro-phenyl)-3-{[1-(3-chloro-phenyl)-5-hydroxy-1H-pyrazole-3-carbonyl]-amino}-propionic acid] is 6.52; for `COc1ccc(C(CC(=O)O)NC(=O)c2cc(O)n(-c3ccccc3)n2)c(C(F)(F)F)c1` (stereo not shown) [Example 546, 3-[(5-Hydroxy-1-phenyl-1H-pyrazole-3-carbonyl)-amino]-3-(4-methoxy-2-trifluoromethyl-phenyl)-propionic acid] it is 6.27; for `Cc1ccc([C@H](CC(=O)O)NC(=O)c2cc(O)n(-c3ccccc3)n2)cc1` [Example 445, (S)-3-[(5-Hydroxy-1-phenyl-1H-pyrazole-3-carbonyl)-amino]-3-p-tolyl-propionic acid] it is 6.89. On the same count and under the same terms, the figure for `COc1cc(C(=O)N[C@@H](CC(=O)O)c2ccccc2C)nn1-c1ccccc1F` [Example 129, (S)-3-{[1-(2-Fluoro-phenyl)-5-methoxy-1H-pyrazole-3-carbonyl]-amino}-3-o-tolyl-propionic acid] is 7.38. Consider `COc1ccc(F)cc1C(CC(=O)O)NC(=O)c1cc(O)n(-c2ccc(F)cc2F)n1` (stereo not shown) [Example 453, 3-{[1-(2,4-Difluoro-phenyl)-5-hydroxy-1H-pyrazole-3-carbonyl]-amino}-3-(5-fluoro-2-methoxy-phenyl)-propionic acid], for which the pIC50 was 6.60.

The assay is the same for the next values; noted with them: recombinant human cathepsin A; read-out: Activity (2): Cathepsin A inhibitory activity, IC50 class.
With `Cc1ccc([C@H](CC(=O)O)NC(=O)c2cc(O)n(-c3ccccc3F)n2)cc1` [Example 480], the pIC50 was 6.00 to 7.00. The same measure, in the same setting: the figure for `COCCNC(=O)C[C@H](NC(=O)c1cc(OC)n(-c2ccccc2F)n1)c1ccccc1C` [Example 935, 1-(2-Fluoro-phenyl)-5-methoxy-1H-pyrazole-3-carboxylic acid [(S)-2-(2-methoxy-ethylcarbamoyl)-1-o-tolyl-ethyl]-amide] is > 7.00.

With `COc1ccc(F)cc1C(CC(=O)O)NC(=O)c1cc(O)n(-c2ccc(F)cc2)n1` (stereo not shown) [Example 525, 3-(5-Fluoro-2-methoxy-phenyl)-3-{[1-(4-fluoro-phenyl)-5-hydroxy-1H-pyrazole-3-carbonyl]-amino}-propionic acid], the negative logarithm of the IC50 (pIC50) was 4.52 to 6.00. `O=C(O)CC(NC(=O)c1cc(O)n(-c2cccc(F)c2)n1)c1cc(F)ccc1C(F)(F)F` (stereo not shown) [Example 486]: the pIC50 was 6.00 to 7.00. Still for that read-out and setting: with `O=C(O)C[C@H](NC(=O)c1cc(O)n(-c2cccc(Cl)c2)n1)c1ccccc1Cl` [Example 514, (S)-3-(2-Chloro-phenyl)-3-{[1-(3-chloro-phenyl)-5-hydroxy-1H-pyrazole-3-carbonyl]-amino}-propionic acid] the figure was 6.00 to 7.00; with `O=C(O)CC(NC(=O)c1cc(O)n(-c2ccnc(Cl)c2)n1)c1ccc(-c2ccccc2)cc1` (stereo not shown) [Example 439], 6.00 to 7.00; with `COc1cc(C(=O)N[C@@H](CC(=O)N[C@@H](C)C(C)(C)C)c2ccccc2C)nn1-c1ccccc1F` [Example 920, 1-(2-Fluoro-phenyl)-5-methoxy-1H-pyrazole-3-carboxylic acid [(S)-1-o-tolyl-2-((S)-1,2,2-trimethyl-propylcarbamoyl)-ethyl]-amide], 4.52 to 6.00. Regarding `O=C(O)CC(NC(=O)c1cc(O)n(-c2cccc(F)c2)n1)c1cc(F)ccc1F` (stereo not shown) [Example 485], the negative-log IC50 (pIC50) was 6.00 to 7.00. Still for that read-out and setting: with `Cc1ccc([C@H](CC(=O)O)NC(=O)c2cc(O)n(-c3ccccc3)n2)cc1` [Example 445, (S)-3-[(5-Hydroxy-1-phenyl-1H-pyrazole-3-carbonyl)-amino]-3-p-tolyl-propionic acid] the figure was 6.00 to 7.00. Still for that read-out and setting: with `COc1ccc(F)cc1C(CC(=O)O)NC(=O)c1cc(O)n(-c2ccc(F)cc2F)n1` (stereo not shown) [Example 453, 3-{[1-(2,4-Difluoro-phenyl)-5-hydroxy-1H-pyrazole-3-carbonyl]-amino}-3-(5-fluoro-2-methoxy-phenyl)-propionic acid] the figure was 6.00 to 7.00.

As usually defined, the pIC50 is the negative decadic logarithm of the IC50, by convention in mol/L.
